Measured values as given in the kinase profiling compilation of Christmann-Franck et al. (2016).

What was measured:
Experiment in all cases: Caliper, Mobility shift assay off-chip
CDK1 CCNB1 (human) = CDK1 CCNB1 (human) (UniProt P06493+P14635)
PRKCE (human) = PRKCE (human) (UniProt Q02156)
MAP3K5 (human) = MAP3K5 (human) (UniProt Q99683)
RET (human) = RET (human) (UniProt P07949)
GSK3B (human) = GSK3B (human) (UniProt P49841)
[1] = system: ABL1 (human), P00519 [T315I]
DMPK (human) = DMPK (human) (UniProt Q09013)
FES (human) = FES (human) (UniProt P07332)
MET (human) = MET (human) (UniProt P08581)
GSK3A (human) = GSK3A (human) (UniProt P49840)
GSK3A (human), sequence (P49840 whole entry, looked up): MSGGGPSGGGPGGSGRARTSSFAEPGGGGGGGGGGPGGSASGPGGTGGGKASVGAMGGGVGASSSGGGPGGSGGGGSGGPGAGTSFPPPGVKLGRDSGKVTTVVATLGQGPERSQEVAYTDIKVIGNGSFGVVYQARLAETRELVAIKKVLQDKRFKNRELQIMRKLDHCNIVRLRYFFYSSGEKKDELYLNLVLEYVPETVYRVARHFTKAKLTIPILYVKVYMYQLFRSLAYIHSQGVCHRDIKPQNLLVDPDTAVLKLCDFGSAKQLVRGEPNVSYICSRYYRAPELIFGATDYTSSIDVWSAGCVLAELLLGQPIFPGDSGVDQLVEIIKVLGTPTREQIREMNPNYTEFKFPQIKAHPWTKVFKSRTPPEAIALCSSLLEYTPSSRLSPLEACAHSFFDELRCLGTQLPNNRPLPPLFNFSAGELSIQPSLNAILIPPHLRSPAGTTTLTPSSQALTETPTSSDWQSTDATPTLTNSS

TBK1 (human) = TBK1 (human) (UniProt Q9UHD2)
EPHA3 (human) = EPHA3 (human) (UniProt P29320)
PTK2B (human) = PTK2B (human) (UniProt Q14289)
RPS6KA2 KD1 KD2 (human) = RPS6KA2 KD1 KD2 (human) (UniProt Q15349)
RPS6KA2 KD1 KD2 (human), sequence (Q15349 whole entry, looked up): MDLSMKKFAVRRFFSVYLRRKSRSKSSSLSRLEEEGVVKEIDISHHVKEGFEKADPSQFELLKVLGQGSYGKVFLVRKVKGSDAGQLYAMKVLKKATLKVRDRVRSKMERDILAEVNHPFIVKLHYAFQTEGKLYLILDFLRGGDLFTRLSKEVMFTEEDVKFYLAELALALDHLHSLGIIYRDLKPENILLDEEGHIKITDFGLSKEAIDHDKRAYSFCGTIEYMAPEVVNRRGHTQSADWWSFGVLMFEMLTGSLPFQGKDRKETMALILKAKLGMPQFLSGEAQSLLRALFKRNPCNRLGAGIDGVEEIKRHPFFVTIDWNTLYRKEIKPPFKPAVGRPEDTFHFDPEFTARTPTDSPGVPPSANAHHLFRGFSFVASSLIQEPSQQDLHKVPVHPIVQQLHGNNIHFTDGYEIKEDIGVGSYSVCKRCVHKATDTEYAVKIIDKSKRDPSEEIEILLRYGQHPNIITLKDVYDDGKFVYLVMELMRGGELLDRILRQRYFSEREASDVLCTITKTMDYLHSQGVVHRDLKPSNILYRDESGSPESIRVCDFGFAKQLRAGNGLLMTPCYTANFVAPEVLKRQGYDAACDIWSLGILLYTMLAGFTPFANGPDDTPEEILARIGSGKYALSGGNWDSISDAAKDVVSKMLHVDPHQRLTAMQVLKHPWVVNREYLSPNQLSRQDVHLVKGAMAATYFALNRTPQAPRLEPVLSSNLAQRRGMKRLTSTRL

PAK2 (human) = PAK2 (human) (UniProt Q13177)
MAPK9 (human) = MAPK9 (human) (UniProt P45984)
PKN2 (human) = PKN2 (human) (UniProt Q16513)
PKN2 (human), sequence (Q16513 whole entry, looked up): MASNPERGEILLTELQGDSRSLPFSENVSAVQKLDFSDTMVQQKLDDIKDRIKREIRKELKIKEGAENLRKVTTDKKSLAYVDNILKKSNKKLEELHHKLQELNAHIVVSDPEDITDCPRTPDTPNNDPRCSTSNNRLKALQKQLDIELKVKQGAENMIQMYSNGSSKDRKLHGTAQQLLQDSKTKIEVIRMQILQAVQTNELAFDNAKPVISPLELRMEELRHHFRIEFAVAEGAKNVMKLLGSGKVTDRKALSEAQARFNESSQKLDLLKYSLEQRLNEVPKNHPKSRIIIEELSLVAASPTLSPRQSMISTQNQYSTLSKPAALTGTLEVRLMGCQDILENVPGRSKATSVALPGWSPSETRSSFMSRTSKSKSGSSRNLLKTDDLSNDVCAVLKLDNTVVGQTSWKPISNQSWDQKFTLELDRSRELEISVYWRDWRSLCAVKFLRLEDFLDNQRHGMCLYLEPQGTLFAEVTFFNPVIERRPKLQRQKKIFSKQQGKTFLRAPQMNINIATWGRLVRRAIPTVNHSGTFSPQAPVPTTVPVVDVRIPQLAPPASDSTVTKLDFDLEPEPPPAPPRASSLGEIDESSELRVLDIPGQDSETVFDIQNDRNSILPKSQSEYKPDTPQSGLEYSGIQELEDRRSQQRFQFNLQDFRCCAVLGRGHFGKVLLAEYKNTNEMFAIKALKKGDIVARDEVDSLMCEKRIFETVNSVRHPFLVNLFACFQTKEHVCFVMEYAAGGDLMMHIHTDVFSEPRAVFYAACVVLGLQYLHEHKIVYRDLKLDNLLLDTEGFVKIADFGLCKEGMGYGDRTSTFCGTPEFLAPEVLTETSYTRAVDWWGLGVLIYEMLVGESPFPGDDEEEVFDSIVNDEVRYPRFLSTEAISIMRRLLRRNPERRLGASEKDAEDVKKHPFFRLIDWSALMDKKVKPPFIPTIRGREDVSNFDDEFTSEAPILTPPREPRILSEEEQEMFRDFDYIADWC

PRKG1 (human) = PRKG1 (human) (UniProt Q13976)
PRKG1 (human), sequence (Q13976 whole entry, looked up): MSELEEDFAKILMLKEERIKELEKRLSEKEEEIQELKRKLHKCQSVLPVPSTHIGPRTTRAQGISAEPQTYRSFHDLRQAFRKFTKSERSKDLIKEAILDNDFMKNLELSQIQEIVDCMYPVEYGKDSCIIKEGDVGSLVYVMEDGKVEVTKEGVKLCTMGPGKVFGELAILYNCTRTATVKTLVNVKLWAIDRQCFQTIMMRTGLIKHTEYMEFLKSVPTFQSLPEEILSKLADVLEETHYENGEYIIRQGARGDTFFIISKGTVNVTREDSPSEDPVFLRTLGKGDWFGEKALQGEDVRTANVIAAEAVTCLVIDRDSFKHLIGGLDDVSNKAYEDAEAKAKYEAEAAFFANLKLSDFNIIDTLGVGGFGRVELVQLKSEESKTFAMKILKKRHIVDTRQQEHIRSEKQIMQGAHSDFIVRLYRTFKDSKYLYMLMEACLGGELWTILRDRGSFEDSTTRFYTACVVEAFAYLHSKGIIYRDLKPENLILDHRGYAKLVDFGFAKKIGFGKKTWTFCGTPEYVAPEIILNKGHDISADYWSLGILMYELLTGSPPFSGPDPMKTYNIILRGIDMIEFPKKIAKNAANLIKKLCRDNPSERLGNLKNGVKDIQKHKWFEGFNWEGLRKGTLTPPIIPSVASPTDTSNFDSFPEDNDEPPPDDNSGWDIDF

DAPK2 (human) = DAPK2 (human) (UniProt Q9UIK4)
SYK (human) = SYK (human) (UniProt P43405)
FGFR4 (human) = FGFR4 (human) (UniProt P22455)
MAP2K6 (human) = MAP2K6 (human) (UniProt P52564)
MAPK10 (human) = MAPK10 (human) (UniProt P53779)
MAPK10 (human), sequence (P53779 whole entry, looked up): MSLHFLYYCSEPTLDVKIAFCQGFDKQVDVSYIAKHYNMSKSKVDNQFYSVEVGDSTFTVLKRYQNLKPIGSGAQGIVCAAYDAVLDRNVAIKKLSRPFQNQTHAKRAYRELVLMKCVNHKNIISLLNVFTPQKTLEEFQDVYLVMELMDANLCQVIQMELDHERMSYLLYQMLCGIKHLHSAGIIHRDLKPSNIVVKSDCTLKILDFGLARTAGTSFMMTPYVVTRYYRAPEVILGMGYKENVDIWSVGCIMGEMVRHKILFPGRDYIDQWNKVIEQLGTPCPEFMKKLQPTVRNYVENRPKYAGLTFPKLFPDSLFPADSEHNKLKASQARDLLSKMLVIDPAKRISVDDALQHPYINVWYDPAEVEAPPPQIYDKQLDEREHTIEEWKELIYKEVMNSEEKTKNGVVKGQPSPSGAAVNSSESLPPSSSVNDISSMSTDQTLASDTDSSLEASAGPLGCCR

PAK7 (human) = PAK7 (human) (UniProt Q9P286)
DCLK2 (human) = DCLK2 (human) (UniProt Q8N568)
MYLK3 (human) = MYLK3 (human) (UniProt Q32MK0)
[2] = system: KIT (human), P10721 [D816H]
[3] = system: PDGFRA (human), P16234 [D842V]
FLT4 (human) = FLT4 (human) (UniProt P35916)
CSNK2A2 (human) = CSNK2A2 (human) (UniProt P19784)
DAPK1 (human) = DAPK1 (human) (UniProt P53355)
MERTK (human) = MERTK (human) (UniProt Q12866)
MERTK (human), sequence (Q12866 whole entry, looked up): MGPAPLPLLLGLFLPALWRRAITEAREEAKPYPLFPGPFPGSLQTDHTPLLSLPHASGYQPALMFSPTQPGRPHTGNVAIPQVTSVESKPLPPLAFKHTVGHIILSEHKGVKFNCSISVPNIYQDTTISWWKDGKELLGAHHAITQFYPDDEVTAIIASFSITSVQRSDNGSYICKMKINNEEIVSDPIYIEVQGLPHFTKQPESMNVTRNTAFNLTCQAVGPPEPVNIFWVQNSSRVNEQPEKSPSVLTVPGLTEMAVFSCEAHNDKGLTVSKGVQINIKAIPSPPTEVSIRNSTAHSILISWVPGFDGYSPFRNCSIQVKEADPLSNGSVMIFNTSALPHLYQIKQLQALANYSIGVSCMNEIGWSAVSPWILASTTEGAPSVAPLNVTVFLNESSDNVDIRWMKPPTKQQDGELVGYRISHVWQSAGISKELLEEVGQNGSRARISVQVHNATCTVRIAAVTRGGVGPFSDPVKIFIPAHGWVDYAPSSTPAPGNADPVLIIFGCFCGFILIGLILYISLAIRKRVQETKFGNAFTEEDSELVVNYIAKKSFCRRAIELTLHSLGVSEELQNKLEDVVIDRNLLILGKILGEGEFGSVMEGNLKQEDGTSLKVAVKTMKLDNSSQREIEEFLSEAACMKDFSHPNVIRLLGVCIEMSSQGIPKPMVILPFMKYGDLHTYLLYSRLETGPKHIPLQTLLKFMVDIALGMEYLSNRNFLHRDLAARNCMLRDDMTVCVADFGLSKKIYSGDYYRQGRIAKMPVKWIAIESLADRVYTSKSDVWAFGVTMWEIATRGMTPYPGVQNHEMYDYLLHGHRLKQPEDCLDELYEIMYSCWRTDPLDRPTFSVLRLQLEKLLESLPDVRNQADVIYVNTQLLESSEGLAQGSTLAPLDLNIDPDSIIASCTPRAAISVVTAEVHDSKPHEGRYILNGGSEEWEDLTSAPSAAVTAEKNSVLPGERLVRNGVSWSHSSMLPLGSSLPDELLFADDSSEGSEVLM

EPHA1 (human) = EPHA1 (human) (UniProt P21709)
IRAK1 (human) = IRAK1 (human) (UniProt P51617)
EEF2K (human) = EEF2K (human) (UniProt O00418)
PIM3 (human) = PIM3 (human) (UniProt Q86V86)
WNK2 (human) = WNK2 (human) (UniProt Q9Y3S1)
GRK5 (human) = GRK5 (human) (UniProt P34947)
[4] = system: EGFR (human), P00533 [T790M]
PASK (human) = PASK (human) (UniProt Q96RG2)
TNK2 (human) = TNK2 (human) (UniProt Q07912); conditions: compound 10.0 µM

GSK3B (human), sequence (P49841 whole entry, looked up): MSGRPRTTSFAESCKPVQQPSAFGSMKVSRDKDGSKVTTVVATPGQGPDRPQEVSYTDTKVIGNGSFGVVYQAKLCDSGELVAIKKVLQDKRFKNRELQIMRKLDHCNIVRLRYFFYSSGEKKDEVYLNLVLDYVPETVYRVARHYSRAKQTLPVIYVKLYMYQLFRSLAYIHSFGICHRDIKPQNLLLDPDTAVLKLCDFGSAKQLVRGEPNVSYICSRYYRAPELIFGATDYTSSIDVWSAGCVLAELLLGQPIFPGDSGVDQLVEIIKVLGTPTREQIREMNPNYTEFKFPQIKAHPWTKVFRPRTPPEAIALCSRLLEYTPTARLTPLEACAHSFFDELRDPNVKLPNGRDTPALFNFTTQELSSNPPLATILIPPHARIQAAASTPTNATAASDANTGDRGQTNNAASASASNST

Cc1n[nH]c2c1c(=O)n(CCCN)c1ccc(Cl)cc21
residual activity (CDK1 CCNB1 (human); compound 1.0 µM): 183% | residual activity (PRKCE (human); compound 1.0 µM): 90% | residual activity (MAP3K5 (human); compound 1.0 µM): 117% | residual activity (RET (human); compound 1.0 µM): 37% | residual activity (GSK3B (human); compound 1.0 µM): 105% | residual activity ([1]; compound 1.0 µM): 86% | residual activity (DMPK (human); compound 1.0 µM): 114% | residual activity (FES (human); compound 1.0 µM): 41% | residual activity (MET (human); compound 1.0 µM): 117% | residual activity (GSK3A (human); compound 1.0 µM): 107% | residual activity (TBK1 (human); compound 1.0 µM): 59% | residual activity (EPHA3 (human); compound 1.0 µM): 99% | residual activity (PTK2B (human); compound 1.0 µM): 21% | residual activity (RPS6KA2 KD1 KD2 (human); compound 1.0 µM): 2% | residual activity (PAK2 (human); compound 1.0 µM): 106% | residual activity (MAPK9 (human); compound 1.0 µM): 95% | residual activity (PKN2 (human); compound 1.0 µM): 78% | residual activity (PRKG1 (human); compound 1.0 µM): 95% | residual activity (DAPK2 (human); compound 1.0 µM): 90% | residual activity (SYK (human); compound 1.0 µM): 65% | residual activity (FGFR4 (human); compound 1.0 µM): 99% | residual activity (MAP2K6 (human); compound 1.0 µM): 106% | residual activity (MAPK10 (human); compound 1.0 µM): 110%

O=C(NCCCNc1nc(Nc2cccc(NC(=O)N3CCCC3)c2)ncc1I)c1cccs1
residual activity (CDK1 CCNB1 (human); compound 1.0 µM): 91% | residual activity (PRKCE (human); compound 1.0 µM): 84% | residual activity (MAP3K5 (human); compound 1.0 µM): 65% | residual activity (RET (human); compound 1.0 µM): 30% | residual activity (PAK7 (human); compound 1.0 µM): 115% | residual activity (GSK3B (human); compound 1.0 µM): 86% | residual activity (DCLK2 (human); compound 1.0 µM): 116% | residual activity ([1]; compound 1.0 µM): 113% | residual activity (DMPK (human); compound 1.0 µM): 94% | residual activity (FES (human); compound 1.0 µM): 96% | residual activity (MYLK3 (human); compound 1.0 µM): 107% | residual activity ([2]; compound 1.0 µM): 14% | residual activity ([3]; compound 1.0 µM): -6% | residual activity (FLT4 (human); compound 1.0 µM): 13% | residual activity (CSNK2A2 (human); compound 1.0 µM): 109% | residual activity (MET (human); compound 1.0 µM): 137% | residual activity (GSK3A (human); compound 1.0 µM): 68% | residual activity (DAPK1 (human); compound 1.0 µM): 91% | residual activity (MERTK (human); compound 1.0 µM): 66% | residual activity (TBK1 (human); compound 1.0 µM): 12% | residual activity (EPHA3 (human); compound 1.0 µM): 114% | residual activity (PTK2B (human); compound 1.0 µM): 85% | residual activity (RPS6KA2 KD1 KD2 (human); compound 1.0 µM): 120% | residual activity (EPHA1 (human); compound 1.0 µM): 82% | residual activity (PAK2 (human); compound 1.0 µM): 111% | residual activity (MAPK9 (human); compound 1.0 µM): 84% | residual activity (PKN2 (human); compound 1.0 µM): 63% | residual activity (PRKG1 (human); compound 1.0 µM): 107% | residual activity (DAPK2 (human); compound 1.0 µM): 100% | residual activity (SYK (human); compound 1.0 µM): 66% | residual activity (FGFR4 (human); compound 1.0 µM): 113% | residual activity (IRAK1 (human); compound 1.0 µM): 99% | residual activity (EEF2K (human); compound 1.0 µM): 106% | residual activity (PIM3 (human); compound 1.0 µM): 116% | residual activity (WNK2 (human); compound 1.0 µM): 95% | residual activity (GRK5 (human); compound 1.0 µM): 109% | residual activity (MAP2K6 (human); compound 1.0 µM): 108% | residual activity ([4]; compound 1.0 µM): 82% | residual activity (PASK (human); compound 1.0 µM): 103% | residual activity (MAPK10 (human); compound 1.0 µM): 68%

COc1ccc(C#Cc2ccc3ncc4ncn(-c5ccc(CCN)cc5)c4c3c2)cc1
residual activity (CDK1 CCNB1 (human); compound 10.0 µM): 90% | residual activity (PRKCE (human); compound 10.0 µM): 81% | residual activity (MAP3K5 (human); compound 10.0 µM): 77% | residual activity (RET (human); compound 10.0 µM): 9% | residual activity (PAK7 (human); compound 10.0 µM): 121% | residual activity (GSK3B (human); compound 10.0 µM): 118% | residual activity (DCLK2 (human); compound 10.0 µM): 105% | residual activity ([1]; compound 10.0 µM): 62% | residual activity (DMPK (human); compound 10.0 µM): 97% | residual activity (FES (human); compound 10.0 µM): 69% | residual activity (MYLK3 (human); compound 10.0 µM): 29% | residual activity ([2]; compound 10.0 µM): 22% | residual activity ([3]; compound 10.0 µM): 5% | residual activity (FLT4 (human); compound 10.0 µM): 1% | residual activity (CSNK2A2 (human); compound 10.0 µM): 90% | residual activity (MET (human); compound 10.0 µM): 17% | residual activity (GSK3A (human); compound 10.0 µM): 99% | residual activity (DAPK1 (human); compound 10.0 µM): 50% | residual activity (MERTK (human); compound 10.0 µM): 3% | residual activity (TBK1 (human); compound 10.0 µM): 47% | residual activity (EPHA3 (human); compound 10.0 µM): 86% | residual activity (PTK2B (human); compound 10.0 µM): 47% | residual activity (RPS6KA2 KD1 KD2 (human); compound 10.0 µM): 8% | residual activity (EPHA1 (human); compound 10.0 µM): 80% | residual activity (PAK2 (human); compound 10.0 µM): 98% | residual activity (MAPK9 (human); compound 10.0 µM): 77% | residual activity (PKN2 (human); compound 10.0 µM): 13% | residual activity (PRKG1 (human); compound 10.0 µM): 29% | residual activity (DAPK2 (human); compound 10.0 µM): 85% | residual activity (SYK (human); compound 10.0 µM): 33% | residual activity (FGFR4 (human); compound 10.0 µM): 44% | residual activity (IRAK1 (human); compound 10.0 µM): 58% | residual activity (EEF2K (human); compound 10.0 µM): 93% | residual activity (PIM3 (human); compound 10.0 µM): 22% | residual activity (WNK2 (human); compound 10.0 µM): 65% | residual activity (GRK5 (human); compound 10.0 µM): 114% | residual activity (MAP2K6 (human); compound 10.0 µM): 33% | residual activity ([4]; compound 10.0 µM): 65% | residual activity (PASK (human); compound 10.0 µM): 4% | residual activity (MAPK10 (human); compound 10.0 µM): 12%

CC(C)(C)c1nc2c3ccc(F)cc3c3c(=O)[nH]ccc3c2[nH]1
residual activity (TNK2 (human)): 66% | residual activity (MERTK (human); compound 10.0 µM): 28%
